The values that follow are results of earlier work, collected in EP2792015B1, “HIGH SPECIFIC-ENERGY LI/02-CO2 BATTERY” (Robert Bosch GmbH, priority 2011, dated 2013).

The conditions of the data set: 1 atmosphere and 25°C.

Each structure is given as a SMILES string. ≈ marks a conversion by molar mass, not a printed value. Like-named read-outs stand apart in the source and are kept apart here.

Turning to `O=C=O` [CO2, carbon dioxide], the Solubility (in general, the dissolved amount per volume that the medium holds) by setting is: (in H2O) 1450 µg/mL (≈ 32.9 mM); (in propylene carbonate) 6115 µg/mL (≈ 139 mM).

Regarding `O=O` [O2, oxygen], the “Solubility” value was 8.3 µg/mL (≈ 0.259 mM) (in H2O) and 110 µg/mL (≈ 3.44 mM) (in propylene carbonate).
